A melting point compilation (Tetko et al.; mined from patent text by program, amines drawn as free bases though some values may be those of a salt)

| melting point | SMILES |
| --- | --- |
| 168 to 170 °C | CC1Sc2nc3c(cnn3C)c(=O)n2C1C (centres undefined) |
| 222 to 224 °C | N#Cc1cc(Br)cc2ccc(O)cc12 |
| 173 to 175 °C | CS(=O)(=O)c1nc(O)nn1-c1ccccc1 |
| 104 to 106 °C | O=C1CNC(c2cccc(Cc3ccccc3)c2)=NN1CC(F)(F)F |
| 93.5 to 95.5 °C | CCOCCOc1nc2c(c3ccccc13)c1cc(Cl)ccc1n2C |
| 128 °C | CC(C#Cc1ccc(Oc2cccnc2)o1)N(O)C(N)=O (centres undefined) |
| 170 to 171 °C | COCc1ccc(C(=O)N[C@H](Cc2ccc(C(F)(F)F)cc2)[C@@H](O)c2ccc(F)cc2)c2ccccc12 (racemic) |
| 82.5 to 83 °C | CNC(=O)C1CC(=O)N(Cc2ccccc2)C1 (centres undefined) |
| 64.4 °C | N[C@@H]1CN2C(=O)N(c3cc(Cl)cc(Cl)c3)C(=O)[C@@]2(Cc2ccc(Br)cc2)C1 |
| 227 to 228 °C | Cc1csc(C(=O)C2C(=O)N(C(N)=O)c3ccc(Cl)nc32)c1 (centres undefined) |
| 215 to 217 °C | COCc1nc2c(N)nc3cc(CCC(=O)N4CCOCC4)ccc3c2n1CC(C)(C)O |
| > 315 °C | Oc1ncnc2nc(-c3cccc(Cl)c3)cnc12 |
| 204 to 206 °C | COc1cc(C#N)ccc1Cc1c[nH]c2ccc([N+](=O)[O-])cc12 |
| 232 to 234 °C | Cc1nc(N2CCN(CC(=O)NCc3ccc(F)cc3)C2=O)sc1C(=O)NCc1ccccc1 |
| 146 to 148 °C | COc1cc2c(c3c1OC(C)(C)C3)C(c1cccc(NC(=O)CCCCl)c1)=NC(C)(C)C2 |
| 167 to 170 °C | O=C(Cc1ccc(Oc2ccc(C(F)(F)F)cn2)cc1)Nc1ccncc1 |
| 112 to 113 °C | CCCn1c(=Nc2ccc([N+](=O)[O-])cc2)sc2ncccc2c1=O |
| 81 to 83.5 °C | COc1oc(=O)n(-c2ccccc2)c1C |
| 182 to 183 °C | COc1ccc(-c2ccc(C(=O)Nc3ccc4cc(CN5CCCC5)cnc4c3F)c(F)c2)cc1 |
| > 300 °C | Oc1cc(-c2c(-c3ccccc3)nn3ccccc23)n[nH]1 |
| 237 °C | CS(=O)(=O)c1ccc(C2=C(c3ccc(-c4cscn4)cc3)C(=O)OC2)cc1 |
| 237 to 238 °C | COc1ccc(CN2C(=O)[C@H]3CCC[C@H]3N(C(=O)CN3C(=O)c4ccccc4C3=O)c3ccccc32)cc1 (relative stereo) |
| 139 to 142 °C | CCN1C(=O)C(C(=O)Nc2cccc(C(=O)Nc3ccc(Br)cc3)c2)c2cc(C(=O)c3ccccc3)ccc21 (centres undefined) |

| melting point | SMILES |
| --- | --- |
| 142 °C | OC(Cc1ccc(Cl)cc1Cl)(Cn1ccnc1)c1ccc(C2CCCCC2)cc1 (centres undefined) |
| 240 °C | NC(=O)c1nccn1C1Cc2cc(Br)ccc2C1=O (centres undefined) |
| 245 °C | COc1cc2c(cc1OC)CN(c1nc(N)nc3cc(OC)c(OC)cc13)CC2 |
| 235 to 237 °C | CN(C)C(C)(C)c1ccc(-c2nc(Nc3ccc(-n4cncn4)cc3)ncc2C#N)cc1 |
| 138 to 142 °C | CC(C#Cc1ccc(C#N)cc1)N1C(=O)c2ccccc2C1=O (centres undefined) |
| 219 to 221 °C | N#Cc1cnc2sc(-c3ccccc3)cc2c1Oc1ccc2[nH]ccc2c1 |
| 130 to 132 °C | COc1cc(OC)nc(Oc2cccc(Cl)c2C(=O)Oc2ccc([N+](=O)[O-])cc2)n1 |
| 189 to 190 °C | COc1ccc(-c2cc(-c3ccoc3)c(C(=O)NCc3ccc(C(=O)NO)cc3)[nH]2)cc1 |
| 109 to 110 °C | COc1cccc(Oc2c(Cl)ncnc2NS(=O)(=O)c2ccc(C(C)(C)C)cc2)c1 |
| 182 to 189 °C | Cc1nc(N)c(C#N)cc1-c1ccccc1 |
| 110 to 112 °C | CC(C)(C)OC(=O)C(O)CC1CCC(=O)N1 (centres undefined) |
| 135 to 136 °C | O=C1CCCN1C(=O)Oc1ccccc1[N+](=O)[O-] |
| 139 to 141 °C | COC(=O)c1ccccc1C(=O)OCC1CN(C(=O)Oc2ccccc2)CCC1c1ccc(F)cc1 (centres undefined) |
| 170 to 171 °C | CCOC(=O)c1cn(-c2ccc(F)cc2F)c2nc(SCC)c(F)cc2c1=O |
| 209 to 210 °C | COc1ccc(Nc2ccc(-c3ccnc(Nc4cc(OC)c(OC)c(OC)c4)n3)cn2)cc1 |
| 99 to 101 °C | CN1OC(c2ccc(Cl)cc2)CC1(Cn1ccnc1)c1ccco1 (centres undefined) |
| 145 °C | O=C(O)COc1cccc2c1CCCC2CCOC(=O)N(c1ccccc1)c1ccccc1 (centres undefined) |
| 215 to 217 °C | CC(C)N1C(=O)C2Cc3c(nc(C(=O)c4ccccc4)n3Cc3ccccc3)CN2C1=O (centres undefined) |
| 158 to 159 °C | CC(C)C(NC(=O)OCc1ccncc1)C(=O)NC(Cc1ccccc1)C(O)C(Cc1ccccc1)NC(=O)C(NC(=O)OCc1ccncc1)C(C)C (centres undefined) |
| 130 °C | O=C(O)c1ccc(NCCNC(=O)C2Cc3ccccc3N2S(=O)(=O)c2ccc(-c3cc(C(F)(F)F)ccc3Cl)cc2)cc1 (centres undefined) |
| 233 to 234 °C | O=c1[nH]c2cc(Cl)ccc2c(=O)c(-c2ccco2)c1O |
| 150 to 152 °C | CCC(=O)N(C)c1cccc(-c2ccc3nnc(C)n3n2)c1 |
| 227 to 228 °C | COC(=O)NC1=NC(c2ccc3ccccc3c2)CN1 (centres undefined) |

| melting point | SMILES |
| --- | --- |
| 247 °C | CCOc1cc(-c2cc(C(F)F)n3ncc(C(=O)O)c3n2)ccc1C(F)(F)F |
| 151 to 152 °C | CCCS(=O)c1sc(C(N)=O)c2c1-c1c(cnn1CC)CC2 (centres undefined) |
| 72 to 73 °C | CN(CCc1ccc2c(c1)oc(=O)n2C)Cc1ccccc1 |
| 196 to 198 °C | O=C(Nc1ccc(C(F)(F)F)cc1)Nc1cccc(S(=O)(=O)Nc2ccc(Cl)cc2)c1 |
| 158 to 159 °C | N#CC(C#N)(OC(=O)c1ccc(Cl)cc1)c1ccc(Cl)cc1 |
| 85 to 87 °C | Nc1ccc(Oc2ncc(C(F)(F)F)cc2Cl)cc1 |
| 42 to 44 °C | Cc1ccc(S(=O)(=O)N(C)F)cc1 |
| 126 to 128 °C | CC(C)(C)OC(=O)N1CCN(c2ncnc3c2cnn3Cc2cccc(Br)n2)CC1 |
| 146 to 148 °C | CCN(C(=O)N1CCN(c2cc(Cl)cc(Cl)c2)CC1)c1nc2ccccc2nc1OC |
| 99 to 101 °C | COc1ccc(C=Cc2c(Cl)cncc2Cl)c2c1CC1(CCCC1)O2 |
| 73 to 75 °C | COc1cc(Br)ccc1OC(=O)c1ccccc1 |
| 152 to 155 °C | O=C(O)Cc1ccc2c(c1)C(=O)c1cc(C(F)(F)F)ccc1CO2 |
| 75 to 77 °C | CC(C)(CO)CCCCCCC(O)CCCCCCC(C)(C)CO |
| 154 to 157 °C | NC(=O)CCC(C(N)=O)c1ccc(F)cc1 (centres undefined) |
| 182 °C | CCOc1ccccc1C(=O)Nc1ccc2oc(Nc3ccc(CC)cc3)nc2c1 |
| 93 to 95 °C | CCN(CC)c1nc2ccccc2n2c(C(C)C)nnc12 |
| 155 to 156 °C | CNC(=O)N1CC(Oc2cccc(F)c2)C1 |
| 125 to 133 °C | O=C(/C=C/c1ccccc1[N+](=O)[O-])N1CCN(C(=O)c2cc(C(F)(F)F)cc(C(F)(F)F)c2)[C@H](Cc2c[nH]c3ccccc23)C1 |
| 135 to 137 °C | Cn1nnnc1C(C=O)=C(c1ccc(F)cc1)c1ccc(F)cc1 |
| 150 to 151 °C | O=[N+]([O-])c1cccc(-c2nnc(NCc3cccc4ccccc34)s2)c1 |
| 136 °C | O=Cc1c(Br)ncn1Cc1cc2c(cc1Cl)OCO2 |
| 91 to 93 °C | CC(C)(C)c1cccc(C[C@@H](NC(=O)c2cccc3c(Cl)cccc23)[C@@H](O)c2cccc(Cl)c2)c1 (racemic) |
| 174 to 180 °C | Oc1cc(Cl)c(-c2nnn[nH]2)cc1Oc1ccc(Cl)cc1Cl |

| melting point | SMILES |
| --- | --- |
| 64 to 71 °C | CCOC(=O)C1=NOC2(CCC(C3CCCCC3)CC2)C1 (centres undefined) |
| 109 to 110 °C | CCOc1nn(-c2ccc(C(F)(F)F)cn2)cc1CCCCOc1ccccc1CC(=O)O |
| 106 to 108 °C | O=C(Oc1ccc(C(=O)OCc2ccccc2)cc1)C(=O)Oc1ccc(C(=O)OCc2ccccc2)cc1 |
| 132 °C | Cc1cccc(CNc2ncccc2[N+](=O)[O-])n1 |
| 171 to 172 °C | CCc1ccc(C=C2CCCN(c3nc(C)c(C(=O)NCc4ccccc4)s3)C2=O)s1 |
| 98 °C | CCC(C)N(C)C(=O)c1cc(-c2ccccc2Cl)c2sccc2c1 (centres undefined) |
| 153 to 154 °C | Cc1nnc(-c2ccc3ncn(-c4cccc(OC(F)(F)F)c4)c3c2)o1 |
| 88 to 90 °C | CCC(CC)(CC(=O)Nc1cccc(OCc2ccc3cc(F)ccc3n2)c1)C(=O)O |
| 206 to 208 °C | COC(=O)c1ccc(Cn2nnc3ccc(NC(=O)CC4CCCC4)cc32)c(OC)c1 |
| 121 °C | CC(=O)N1c2ccccc2C=Cc2ccccc21 |
| 119 to 120 °C | FC(F)(F)c1cc(I)ccc1-c1ccc(I)cc1C(F)(F)F |
| 109 to 111 °C | O=C(Nc1ccc(-n2nc(C(F)(F)F)cc2C(F)(F)F)cc1)c1cc(F)c(F)cc1F |
| 291 to 293 °C | CC(c1ccccc1)c1ccc(-c2cnn3c(O)ncnc23)cc1 (centres undefined) |
| 257 to 259 °C | c1ccc2c(N3CCN(CCc4ccc(-c5csnn5)cc4)CC3)nsc2c1 |
| 160 to 162 °C | CN1CCSC1=NC(=Nc1ccccc1)N1CCCC1 |
| 189 to 190 °C | OCc1c(-c2ccc(F)cc2)nn2ccc3c(c12)CCO3 |
| 136 to 145 °C | Cc1ccnc(NC(c2ccc([N+](=O)[O-])cc2)c2ccccc2O)n1 (centres undefined) |
| 142 to 144 °C | COc1ccc(C(C#Cc2ccccc2)CC(=O)Nc2nccs2)cc1OC1CCCC1 (racemic) |
| 117 to 119 °C | Cc1cccc2c1C1(COc3cc4c(cc31)OCO4)C(=O)N2Cc1ccc(C(F)(F)F)o1 (centres undefined) |
| 210 °C | Cn1c(C(=O)O)c(Br)c2cc(OCc3ccccc3)ccc21 |
| 56 to 60 °C | COc1ccc(OCCCO)cc1 |
| 100 to 101 °C | CCOP(=O)(Cc1cccc(CN2C(=O)c3ccccc3C2=O)c1)OCC |
| 194 to 195 °C | COc1cc2c(=O)n(CCN(C)C)c3c(cnc4cccc([N+](=O)[O-])c43)c2cc1OC |

| SMILES | melting point |
| --- | --- |
| O=C(CC(=O)Nc1ccccc1Cl)CS(=O)(=O)C(c1ccc(Cl)cc1)c1ccc(Cl)cc1 | 92 to 95 °C |
| CC(C)NC(=O)Nc1ccc2c(c1)C(c1ccccc1F)=NCC(=O)N2C | 185 to 188 °C |
